Test results as given in ChEMBL document CHEMBL6127139, “Lysine-Targeted Covalent Inhibitors of PI3Kδ Synthesis and Screening by In Situ Interaction Upgradation” (J Med Chem, 2024).
Active and inactive are the calls of the source. The rule behind the calls is not given here.

How the values were obtained:
SU-DHL-6 [1] = assay: Induction of cell cycle arrest in human SU-DHL-6 cells assessed as increase in G0/G1 phase cells incubated for 24 hrs by PI staining based flow cytometric analysis; type: functional; details: dose 1-100 nM
SU-DHL-6 [2] = assay: Antitumor activity against human SU-DHL-6 cells xenografted in male nude mouse assessed as tumor growth inhibition at 30 mg/kg/day, po administered for 14 days relative to control; type: functional; details: SU-DHL-6, 336 h, time 14 day, read-out: TGI
[3] = Chemical reactivity of the compound with N-Boc-Lysine assessed as half-life at 1 uM by HPLC analysis; type: physicochemical; details: incubation with N-Boc-Lysine
[4] = molecular target: Phosphatidylinositol 4,5-bisphosphate 3-kinase catalytic subunit alpha isoform (Homo sapiens, UniProt P42336); assay: Inhibition of recombinant PI3Kalpha (unknown origin) using PIP2:3PS as substrate preincubated for 20 mins followed by ATP addition and measured after 1 hrs by ADP-Glo reagent based assay
SU-DHL-6 [5] = assay: Antitumor activity against human SU-DHL-6 cells xenografted in male nude mouse assessed as reduction in Ki67 expression in tumor at 5 to 30 mg/kg/day, po administered for 14 days by immunohistochemical staining based analysis; type: functional, organism-based; details: dose 5-30 mg/kg/day, time 14.0 day
MCF7 = assay: Growth inhibition of human MCF7 cells incubated for 72 hrs by MTT assay; type: functional
SU-DHL-6 [6] = assay: Induction of apoptosis in human SU-DHL-6 cells assessed as viable cells at 1 uM incubated for 48 hrs by Annexin V-FITC/PI staining based flow cytometric analysis (reference value: 89.81 %); type: functional; details: read-out: Activity
SU-DHL-6 [7] = assay: Irreversible inhibition of AKT phosphorylation in human SU-DHL-6 cells preincubated for 12 hrs followed by compound washout and measured after 24 hrs by Western blot analysis; type: cell-based
SU-DHL-6 [8] = assay: Induction of apoptosis in human SU-DHL-6 cells assessed as early apoptotic cells at 1 uM incubated for 48 hrs by Annexin V-FITC/PI staining based flow cytometric analysis (reference value: 5.02 %); type: functional
[9] = Growth inhibition of PI3Kdelta-overexpressing human SU-DHL-6 cells incubated for 72 hrs by MTT assay; type: functional
[10] = molecular target: T1, Phosphatidylinositol 4,5-bisphosphate 3-kinase catalytic subunit delta isoform (Homo sapiens) (UniProt O00329); assay: Binding affinity to PI3Kdelta in human SU-DHL-6 cells preincubated for 1 hrs followed by (S)-phenyl 5-(4-((1-(1-(3-azidopropanoyl)piperidine-4-carbonyl)pyrrolidin-3-yl)amino)pyrido[3,2-d]pyrimidin-6-yl)-2-methoxynicotinate addition and measured after 2 hrs by DBCO-Cy3 based SDS-PAGE analysis; type: cell-based; details: time 3.0 hrs
T1 sequence (whole entry): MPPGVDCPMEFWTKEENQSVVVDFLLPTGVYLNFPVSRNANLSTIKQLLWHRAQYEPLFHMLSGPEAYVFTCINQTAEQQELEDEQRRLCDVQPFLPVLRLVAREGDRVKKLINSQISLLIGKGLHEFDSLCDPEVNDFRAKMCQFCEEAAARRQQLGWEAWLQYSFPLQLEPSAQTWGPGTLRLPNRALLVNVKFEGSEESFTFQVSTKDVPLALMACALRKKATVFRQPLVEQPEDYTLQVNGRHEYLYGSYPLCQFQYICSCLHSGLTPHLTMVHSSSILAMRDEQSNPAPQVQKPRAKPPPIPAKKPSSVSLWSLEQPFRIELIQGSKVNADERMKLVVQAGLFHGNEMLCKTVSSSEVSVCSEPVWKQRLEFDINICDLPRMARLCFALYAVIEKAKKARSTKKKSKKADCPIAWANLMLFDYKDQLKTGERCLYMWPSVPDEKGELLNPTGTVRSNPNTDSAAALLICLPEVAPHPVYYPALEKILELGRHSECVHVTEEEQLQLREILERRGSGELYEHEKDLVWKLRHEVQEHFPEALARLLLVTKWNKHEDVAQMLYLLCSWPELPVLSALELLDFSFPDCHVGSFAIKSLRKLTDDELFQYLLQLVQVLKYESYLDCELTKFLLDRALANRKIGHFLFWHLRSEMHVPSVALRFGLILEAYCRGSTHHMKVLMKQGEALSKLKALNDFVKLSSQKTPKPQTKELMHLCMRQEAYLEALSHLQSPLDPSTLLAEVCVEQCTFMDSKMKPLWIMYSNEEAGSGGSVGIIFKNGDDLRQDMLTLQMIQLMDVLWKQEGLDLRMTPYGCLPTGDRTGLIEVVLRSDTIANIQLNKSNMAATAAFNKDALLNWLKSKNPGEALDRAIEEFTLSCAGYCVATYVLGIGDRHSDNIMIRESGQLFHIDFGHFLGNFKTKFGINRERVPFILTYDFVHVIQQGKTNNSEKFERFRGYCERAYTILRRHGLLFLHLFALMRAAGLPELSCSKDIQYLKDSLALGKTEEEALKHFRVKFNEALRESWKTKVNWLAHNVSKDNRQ

SU-DHL-6 [11] = assay: Induction of apoptosis in human SU-DHL-6 cells assessed as viable cells at 0.01 uM incubated for 48 hrs by Annexin V-FITC/PI staining based flow cytometric analysis (reference value: 89.81 %); type: functional; details: read-out: Activity
SU-DHL-6 [12] = assay: Antiproliferative activity against human SU-DHL-6 cells assessed as inhibition of cell viability preincubated for 12 hrs followed by compound washout and measured after 60 hrs by MTT assay; type: functional, cell-based
[13] = molecular target: Phosphatidylinositol 4,5-bisphosphate 3-kinase catalytic subunit gamma isoform (Homo sapiens, UniProt P48736); assay: Inhibition of recombinant PI3Kgamma (unknown origin) using PIP2:3PS as substrate preincubated for 20 mins followed by ATP addition and measured after 1 hrs by ADP-Glo reagent based assay
SU-DHL-6 [14] = assay: Induction of apoptosis in human SU-DHL-6 cells assessed as necrotic cells at 0.01 uM incubated for 48 hrs by Annexin V-FITC/PI staining based flow cytometric analysis (reference value: 1.05 %); type: functional
SU-DHL-6 [15] = assay: Induction of apoptosis in human SU-DHL-6 cells assessed as late apoptotic cells at 0.1 uM incubated for 48 hrs by Annexin V-FITC/PI staining based flow cytometric analysis (reference value: 4.12 %); type: functional
[16] = molecular target: T1, Phosphatidylinositol 4,5-bisphosphate 3-kinase catalytic subunit delta isoform (Homo sapiens); assay: Covalent inhibition of PI3Kdelta (unknown origin) using PIP2:3PS as substrate assessed as rate constant for irreversible inactivation (Kinact) incubated upto 180 mins in presence of ATP by ADP-Glo reagent based assay
SU-DHL-6 [17] = assay: Irreversible inhibition of AKT phosphorylation in human SU-DHL-6 cells preincubated for 12 hrs followed by compound washout and measured upto 72 hrs by Western blot analysis; type: cell-based
[18] = molecular target: Phosphatidylinositol 4,5-bisphosphate 3-kinase catalytic subunit beta isoform (Homo sapiens, UniProt P42338); assay: Inhibition of recombinant PI3Kbeta (unknown origin) using PIP2:3PS as substrate preincubated for 20 mins followed by ATP addition and measured after 1 hrs by ADP-Glo reagent based assay
[19] = Toxicity in male nude mouse xenografted with human Pfeiffer cells assessed as change in body weight at 5 to 30 mg/kg/day, po administered for 14 days; type: organism-based; details: in vivo, 336 h, dose 5-30 mg/kg/day, time 14 day
SU-DHL-6 [20] = assay: Induction of apoptosis in human SU-DHL-6 cells assessed as late apoptotic cells at 0.01 uM incubated for 48 hrs by Annexin V-FITC/PI staining based flow cytometric analysis (reference value: 4.12 %); type: functional

Phosphatidylinositol 4,5-bisphosphate 3-kinase catalytic subunit beta isoform, sequence (P42338 whole entry, canonical isoform): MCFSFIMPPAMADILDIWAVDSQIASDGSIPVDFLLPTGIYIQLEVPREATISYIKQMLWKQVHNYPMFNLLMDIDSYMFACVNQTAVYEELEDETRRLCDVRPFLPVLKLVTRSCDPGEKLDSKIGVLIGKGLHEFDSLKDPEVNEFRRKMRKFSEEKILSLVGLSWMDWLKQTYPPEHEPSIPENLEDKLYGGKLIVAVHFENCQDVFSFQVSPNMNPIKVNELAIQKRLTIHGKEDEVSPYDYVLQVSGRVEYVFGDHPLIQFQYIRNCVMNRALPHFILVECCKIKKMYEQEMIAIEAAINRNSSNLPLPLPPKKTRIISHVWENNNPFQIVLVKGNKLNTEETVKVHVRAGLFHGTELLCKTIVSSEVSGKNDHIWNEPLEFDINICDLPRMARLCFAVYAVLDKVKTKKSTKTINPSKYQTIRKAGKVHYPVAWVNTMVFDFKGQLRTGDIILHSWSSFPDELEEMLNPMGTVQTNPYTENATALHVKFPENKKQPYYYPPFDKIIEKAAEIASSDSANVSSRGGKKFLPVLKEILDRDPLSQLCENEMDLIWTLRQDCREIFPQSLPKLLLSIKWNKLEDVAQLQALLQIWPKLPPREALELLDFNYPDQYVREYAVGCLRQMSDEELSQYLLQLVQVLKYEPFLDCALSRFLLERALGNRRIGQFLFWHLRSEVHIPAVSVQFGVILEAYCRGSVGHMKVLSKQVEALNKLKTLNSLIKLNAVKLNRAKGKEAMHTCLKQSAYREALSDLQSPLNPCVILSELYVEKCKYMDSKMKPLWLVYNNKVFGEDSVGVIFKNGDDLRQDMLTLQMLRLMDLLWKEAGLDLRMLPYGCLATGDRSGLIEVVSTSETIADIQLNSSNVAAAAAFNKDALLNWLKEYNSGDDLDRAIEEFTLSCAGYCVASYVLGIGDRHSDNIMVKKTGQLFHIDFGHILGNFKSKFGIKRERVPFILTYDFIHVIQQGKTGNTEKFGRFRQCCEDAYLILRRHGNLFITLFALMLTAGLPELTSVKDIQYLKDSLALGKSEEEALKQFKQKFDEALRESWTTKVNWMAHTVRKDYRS
Phosphatidylinositol 4,5-bisphosphate 3-kinase catalytic subunit gamma isoform, sequence (P48736 whole entry, canonical isoform): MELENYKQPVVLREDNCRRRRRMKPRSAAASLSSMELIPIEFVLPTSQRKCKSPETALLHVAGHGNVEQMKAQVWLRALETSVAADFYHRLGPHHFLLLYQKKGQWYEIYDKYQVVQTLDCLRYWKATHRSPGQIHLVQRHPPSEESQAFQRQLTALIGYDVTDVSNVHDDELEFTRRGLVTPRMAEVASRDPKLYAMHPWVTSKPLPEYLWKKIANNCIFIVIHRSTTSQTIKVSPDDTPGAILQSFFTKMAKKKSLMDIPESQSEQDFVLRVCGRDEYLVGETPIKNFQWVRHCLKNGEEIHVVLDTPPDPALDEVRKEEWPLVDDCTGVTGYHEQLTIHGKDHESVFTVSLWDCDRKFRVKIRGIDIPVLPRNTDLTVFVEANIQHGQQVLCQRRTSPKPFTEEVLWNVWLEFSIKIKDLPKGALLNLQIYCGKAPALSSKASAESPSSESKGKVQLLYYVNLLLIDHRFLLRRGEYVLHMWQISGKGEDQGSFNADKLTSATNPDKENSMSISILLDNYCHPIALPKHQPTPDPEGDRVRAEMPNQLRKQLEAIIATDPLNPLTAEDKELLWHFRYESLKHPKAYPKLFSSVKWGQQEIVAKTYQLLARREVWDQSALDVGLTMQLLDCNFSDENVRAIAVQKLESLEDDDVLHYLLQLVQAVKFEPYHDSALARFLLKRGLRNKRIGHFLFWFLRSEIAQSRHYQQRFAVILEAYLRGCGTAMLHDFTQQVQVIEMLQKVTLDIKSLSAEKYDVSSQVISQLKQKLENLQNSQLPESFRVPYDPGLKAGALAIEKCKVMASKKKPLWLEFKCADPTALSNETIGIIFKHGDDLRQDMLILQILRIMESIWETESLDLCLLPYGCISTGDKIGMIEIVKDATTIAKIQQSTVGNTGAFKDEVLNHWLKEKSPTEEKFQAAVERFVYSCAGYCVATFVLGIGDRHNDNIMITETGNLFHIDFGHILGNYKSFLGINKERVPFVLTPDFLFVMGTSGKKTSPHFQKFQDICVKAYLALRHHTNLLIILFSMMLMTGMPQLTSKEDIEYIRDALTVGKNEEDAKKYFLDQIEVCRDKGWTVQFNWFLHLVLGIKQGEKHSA
Phosphatidylinositol 4,5-bisphosphate 3-kinase catalytic subunit alpha isoform, sequence (P42336 whole entry, canonical isoform): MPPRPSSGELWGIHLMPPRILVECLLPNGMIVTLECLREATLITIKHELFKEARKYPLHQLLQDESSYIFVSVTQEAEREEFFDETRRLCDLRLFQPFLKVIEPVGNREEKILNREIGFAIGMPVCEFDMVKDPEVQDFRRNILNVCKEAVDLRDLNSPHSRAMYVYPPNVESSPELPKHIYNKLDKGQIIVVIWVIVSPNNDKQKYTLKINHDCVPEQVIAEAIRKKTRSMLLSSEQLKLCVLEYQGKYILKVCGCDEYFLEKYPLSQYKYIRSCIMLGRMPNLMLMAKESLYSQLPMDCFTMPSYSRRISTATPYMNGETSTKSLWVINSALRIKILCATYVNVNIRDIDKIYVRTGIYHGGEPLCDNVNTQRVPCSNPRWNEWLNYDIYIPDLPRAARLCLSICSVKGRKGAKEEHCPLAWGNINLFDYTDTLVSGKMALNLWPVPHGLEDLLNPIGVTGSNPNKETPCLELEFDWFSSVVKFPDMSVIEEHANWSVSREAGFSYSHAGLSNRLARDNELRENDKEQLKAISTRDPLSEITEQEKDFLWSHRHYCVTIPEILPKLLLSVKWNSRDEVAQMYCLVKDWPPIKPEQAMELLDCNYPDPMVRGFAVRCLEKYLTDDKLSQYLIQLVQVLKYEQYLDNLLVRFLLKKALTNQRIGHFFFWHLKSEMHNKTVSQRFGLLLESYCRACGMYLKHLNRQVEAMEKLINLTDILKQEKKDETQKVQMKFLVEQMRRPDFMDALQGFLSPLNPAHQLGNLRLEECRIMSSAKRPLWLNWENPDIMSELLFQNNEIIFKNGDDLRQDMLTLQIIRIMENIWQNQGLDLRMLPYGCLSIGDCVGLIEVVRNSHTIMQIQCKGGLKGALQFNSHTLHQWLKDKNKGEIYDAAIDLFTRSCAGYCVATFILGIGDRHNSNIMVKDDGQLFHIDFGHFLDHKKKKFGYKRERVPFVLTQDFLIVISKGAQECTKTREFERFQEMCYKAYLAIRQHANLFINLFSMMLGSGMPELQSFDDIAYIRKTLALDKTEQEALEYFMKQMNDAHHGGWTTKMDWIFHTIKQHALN

With `COc1ncc(-c2ccc3ncnc(N[C@H]4CCN(C(=O)C5CCOCC5)C4)c3n2)cc1C(=O)Oc1ccccc1` the Activity (SU-DHL-6 [1]) was “Dose-Dependent Effect”, the inhibition in vivo at 30 mg/kg/day (SU-DHL-6 [2]) was 95% and the half-life at 1 µM [3] was 2.82 h. For the same molecule, the IC50 [4] was 610 nM, the Activity (SU-DHL-6 [5]) was “Active” and the GI50 (MCF7) was > 10000 nM. For the same molecule, the viability at 1 µM (SU-DHL-6 [6]) was 14.2%, the inhibition (SU-DHL-6 [7]) was “Active” and the Activity (SU-DHL-6 [8]) was 63.74%. The GI50 [9] was 2 nM, the Activity [10] was “Active” and the viability at 0.01 µM (SU-DHL-6 [11]) was 85%. The Activity (SU-DHL-6 [12]) was “Active”, the IC50 [13] was 94 nM and the Activity (SU-DHL-6 [14]) was 0.52%. The Activity (SU-DHL-6 [15]) was 15.06%, the Kinact [16] was 0.02 min⁻¹ and the inhibition (SU-DHL-6 [17]) was “Active”. The IC50 [18] was 203 nM, the Activity [19] was “Non-Toxic” and the Activity (SU-DHL-6 [20]) was 4.19%.
